In one data set the target is T1, hCB2-HEK293 membranes (Homo sapiens, UniProt P34972).
T1 construct: expressed in transfected cells; host or cells: HEK293
Description: CB-2 membrane binding assay ([3H] CP 55,940 displacement). The note with it: mean where tested more than once.

Data set [1] is described as follows: Chronic DIO mouse: plasma and brain concentrations. Type of data set: in vivo. The note with it: for Brain concentration (Std Dev): DIO mice, second study. On the procedure:
Male 14-20-week old diet-induced obese mice were ordered from Taconic. Mice were started on a 60% fat diet (D12492, Research Diets, New Brunswick, N.J.) at 6 weeks of age. Mice were single-housed.
(§1) Test compounds were formulated in 10% PEG400 and 10% solutol. Test compounds were administered by oral gavage (5 ml kg^−1).
The test compound was formulated in 10% PEG400 and 10% solutol. DIO mice received vehicle, test compound (@1, 3 and 10 mg/kg) daily for 26 days. At the end of the experiment, the mice were euthanized and blood and tissues were collected.
Compound #44 was tested according to the procedure as described above, with results as listed in Table BIO-4A through Table BIO4-G, below.
In a second study, Compound #44 was tested according to the procedure as described above, with results as listed in Tables BIO-5A through 5G, below.

The next data set concerns Male SD rats. Description: Open field locomotor activity in rats (CNS activity), stereotypic counts. The class given is in vivo, rat. The note with it: 4 hour monitoring, vehicle 3022.
Excerpt: (§2) Male Sprague Dawley rats were ordered from Charles River (225-250 gm upon arrival). They were fed standard chow diet (Purina 5001) and housed 2 per cage. Male C57bl/6j mice were ordered from Charles River at 22-25 g and housed 3 per cage. They were fed standard chow (Purina 5001). All animals were housed in a temperature-controlled room with 12-hour light/dark cycle. Animals were given food and water ad libitum, except as noted.
as §1
Male SD rats were weighed and transferred to the Activity Chambers with access to water. After a 2-hr acclimation period, the rats were dosed with vehicle or test compound (@3 and 10 mg/kg). The Activity Chamber monitoring software program was initiated and automatically recorded rat activity in each chamber for a period of 4 hours. At the end of the 4 hour monitoring period, the software was stopped and the rats were removed from the activity chambers. The rats were anesthetized and blood samples were obtained via retro-orbital puncture to determine plasma concentration of compounds. The rats were immediately euthanized with CO2 and the brains removed, washed with PBS, frozen on dry ice and stored at −80° C. for receptor occupancy (RO) analysis. […]

A further data set concerns the target hCB1-CHO-K1 membranes (Homo sapiens, UniProt P21554). Put plainly: CB-1 membrane binding assay ([3H] CP 55,940 displacement).
The target in data set [2] is T2, Human CB2R (Cannabinoid receptor 2) (Homo sapiens, UniProt P34972).
T2 construct: host or cells: HEK-293
T2 sequence (P34972 whole entry): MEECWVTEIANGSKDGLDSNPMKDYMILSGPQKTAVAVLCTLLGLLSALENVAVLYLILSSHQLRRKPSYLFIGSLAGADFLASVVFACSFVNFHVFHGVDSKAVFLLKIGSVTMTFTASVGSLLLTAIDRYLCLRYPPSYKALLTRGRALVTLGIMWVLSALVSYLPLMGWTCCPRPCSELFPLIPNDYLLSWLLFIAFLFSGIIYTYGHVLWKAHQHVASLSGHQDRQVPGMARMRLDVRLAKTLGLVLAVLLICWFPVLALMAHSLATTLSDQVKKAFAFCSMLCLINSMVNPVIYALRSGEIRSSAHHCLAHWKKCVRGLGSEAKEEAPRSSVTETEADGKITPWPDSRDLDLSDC
Description: CB-2 in vitro cAMP (HTRF) functional assay. Type of data set: cell-based. The note with it: mean where tested more than once. The source says: CB1 and CB2 receptors are Gi-coupled GPCR. Activation of CB1 and CB2 receptors results in a decrease in cAMP production. An inverse agonist of the CB1 or CB2 receptor results in the opposite effect, an increase of cAMP production. The principle of this assay is based on HTRF® technology (Homogeneous Time-Resolved Fluorescence). The method is a competitive immunoassay between native cAMP produced by cells and the cAMP labeled with the fluorophore d2. The tracer binding is quantified by a Mab anti-cAMP labeled with Eu3+ TBP-NHS Cryptate (supplied as part of the assay kit). The specific signal (i.e. energy transfer) is inversely proportional to the concentration of cAMP in the standard or sample.
Human CB1R (Cannabinoid receptor 1) was stably transfected in HEK-293 cells (DiscoveRx, cat: 93-0200C1). Human CB2R (Cannabinoid receptor 2) was stably transfected in HEK-293 cells (DiscoveRx, cat: 93-0201C1). Cell cultures were maintained in media: DMEM (Invitrogen Cat#12430-054) supplemented with 10% HI FBS (Invitrogen Cat#16140-071), 1% L-glutamine (Invitrogen Cat#25030-081), 0.2 mg/ml Hygromycin B (Invitrogen Cat#10687-010), 600 μg/mL G418 (Invitrogen Cat#10131-035), and 1× Penn/Strep (Invitrogen 15140-122). After cell expansion, aliquots were cryo-stored in media containing 5% DMSO (Pierce Cat#20684).
One day prior to experiments media was warmed to 37° C. and the cryo-stored cells were thawed in a 37° C. water bath. The cells were then added to media (10× volume) and the mixture was centrifuged at 1000 RPM for 5 min. The supernate was removed and the cells were re-suspended in media. A sample of the cell suspension was evaluated on a Cedex XS automated cell counter (Innovatis Systems) to determine viable cells/ml. Additional media was added to the cells to achieve a final cell density of 4E5 cells/mL. The cells were then plated into 384 well PDL white solid bottom plates (Greiner, Cat#781945) at 20 μL per well using a Multidrop (Thermo Scientific). Cells were removed from Row P (location of cAMP standards). Two columns of cells were plated into a clear bottom 384 well PDL coated plate (Greiner, Cat#781944) to view confluence the day of the assay. The cell plates were lidded and stored for 15 minutes in a hood, then transferred to an incubator (37° C., 5% CO2, 95% humidity) overnight.
DMSO was added to all wells of 384 well V bottom polystyrene plate (Greiner, Cat#781280) except to columns 1 and 13, rows O and P and wells M13-M23 and N13-N23. Test compounds (60 μL, 10 mM) were added to Column 1 and 13 (A1 through N1 and A13 through L13). Test compounds were serially diluted 1/3 by transferring and mixing 20 μl sample with 40 μL DMSO.
DMSO (40 μL) was added to wells of 384 well V bottom polystyrene plate: O2 through O11, M14 through M23, N14 through N23, and O14 through O23. AM630 (also known as [6-iodo-2-methyl-1-[2-(4-morpholinyl)ethyl]-1H-indol-3-yl](4-methoxyphenyl)-methanone, Cayman Chemical, Cat#10006974) (60 μL, 10 mM) was added to O1; and 1-(2,4-dichlorophenyl)-7-[(4-fluorophenyl)methylene]-4,5,6,7-tetrahydro-N-1-piperidinyl-1H-indazole-3-carboxamide (60 μL, 10 mM) was added to N13. The control was serially diluted 1/3 by transferring and mixing 20 μl sample with 40 μL DMSO. This process resulted 11 doses per control, 10 mM to […].
Cells plated the day prior to the assay in clear bottom plates were viewed on an inverse microscope to ensure confluency in the range of 60-75%. […]

A short description of data set [3]: Mouse Fast PK/BBB (plasma and brain concentration). Type of data set: in vivo, Male C57bl/6j mice. The note with it: 1 hr after oral dosing; 30 mg/kg or 20 mg/kg; N=3.
Excerpt: as §2, §1
Male C57bl/6j mice were dosed with test compounds at 30 mg/kg. Plasma was collected via retro-orbital bleeding at 1 hr and 4 hrs after dosing. […] Wet brain weight was recorded before freezing. Brains were homogenized in saline and sent for analysis for determination of concentration of test compound.
Table BIO-3 below present results for representative compounds of the present invention, tested according to the procedure as described above. Each compound was tested in three animals (N=3) and administered PA at 20 mg/kg

The values that follow come from patent publication US9464055B2, “Quinoline derivatives useful as CB-1 inverse agonists” (JANSSEN PHARMACEUTICA NV, priority 2014, dated 2016).

SMILES strings stand for the structures.

Chain of hCB1-CHO-K1 membranes (P21554 whole entry): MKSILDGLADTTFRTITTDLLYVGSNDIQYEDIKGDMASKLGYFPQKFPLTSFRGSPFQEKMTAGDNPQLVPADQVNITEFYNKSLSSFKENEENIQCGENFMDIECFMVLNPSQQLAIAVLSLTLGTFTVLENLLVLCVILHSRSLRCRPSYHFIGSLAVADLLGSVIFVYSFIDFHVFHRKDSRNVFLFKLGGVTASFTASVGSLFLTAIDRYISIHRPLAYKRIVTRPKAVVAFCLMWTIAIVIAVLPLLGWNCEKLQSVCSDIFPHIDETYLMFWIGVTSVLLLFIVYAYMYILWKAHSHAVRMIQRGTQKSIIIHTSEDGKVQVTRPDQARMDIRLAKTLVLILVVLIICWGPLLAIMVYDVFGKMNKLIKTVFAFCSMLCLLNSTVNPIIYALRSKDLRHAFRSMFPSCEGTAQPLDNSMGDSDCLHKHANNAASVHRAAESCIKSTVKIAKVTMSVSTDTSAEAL
T1 sequence (P34972 whole entry): as the sequence (P34972 whole entry) above
Description for hCB1-CHO-K1 membranes: Into Greiner V bottom polypropylene plates, hCB1-CHO-K1 membranes (2 μg/well final concentration) in assay buffer (50 mM Tris-HCl pH 7.4, 5 mM MgCl2 and 0.5 mg/ml (0.05%) Ultra fatty acid free BSA) were dispensed. Membranes were purchased from Perkin Elmer. Test compounds were then added to each well and then [^3H] CP 55, 940 (0.4 nM final well concentration) in assay buffer (50 mM Tris-HCl pH 7.4, 5 mM MgCl2 and 0.5 mg/ml (0.05%) Ultra fatty acid free BSA) was added. Samples were mixed and incubated for 90 min at 30° C. in the Greiner V Bottom Polypropylene plate. After incubation, assay reagents were transferred to a blocked 384 well polypropylene filter plates. The binding reaction was stopped by filtration and washed seven times with ice cold rinse buffer. Filter plates were then dried overnight at room temperature. The next day, plate bottoms were sealed with plate tape and 15 μl MicroScint 20 was added to each well. Plates were incubated for 2 h and radioactivity was measured by Topcount.
Total Binding levels were achieved by combining membrane, DMSO, and [^3H]
Non-Specific Binding (NSB) levels were achieved by combining membrane, 10 μM final concentration WIN-55,212 (also known as (R)-(+)-[2,3-Dihydro-5-methyl-3[(4-morpholinyl)methyl]pyrrolo[1,2,3-de]-1,4-benzoxazinyl]-(1-naphthalenyl)methanone mesylate, Tocris Biosciences Cat#1038), and [^3H]
Non-specific binding (NSB=10 μM WIN-55,212+Membrane+[^3H] CP-55,940) was used as the negative control, while the Total Binding (TB=DMSO+Membrane+[^3H] CP-55,940) was used as the positive control.
IC50 data was calculated using raw CPM values. Curves were fitted individually from singlet 11 point dosing curves+1% DMSO Control. IC50 values were fit appropriately and calculated using the following equation:
Vmin, CPM at maximum inhibition; Vo, CPM at zero inhibition; IC50, inhibitor concentration at 50% inhibition; h, Hill coefficient.

Take `O=c1cc(NC2CCN(S(=O)(=O)C(F)(F)F)CC2)c2cc(C(c3ccc(Cl)cc3)c3ccc(Cl)cc3)ccc2[nH]1` [Compound #44, 6-(bis(4-chlorophenyl)methyl)-4-(1-(trifluoromethylsulfonyl)piperidin-4-ylamino)quinolin-2(1H)-one]: the concentration for half-maximal inhibition (IC50) (in general, the concentration that gives 50% inhibition) at hCB2-HEK293 membranes worked out at 53 nM; at hCB1-CHO-K1 membranes, 1.2 nM. Moreover, the “Plasma Concentration (Std Dev)” value in data set [1] (1 mg/kg daily, 2 Hours Post Dose, Day 16, first study) was 431 (62) ng/mL. In addition, the “Brain concentration (Std Dev)” value is recorded as “BLOQ*” in data set [1] (0.3 mg/kg, Day 2, 2 hours post dose); “BLOQ**” in data set [1] (0.3 mg/kg, Day 23, 2 hours post dose); “BLOQ*” in data set [1] (1 mg/kg, Day 2, 2 hours post dose); “BLOQ*” in data set [1] (3 mg/kg, Day 2, 2 hours post dose). For the same compound, the “Stereotypic Counts (MEAN)” value in the data set on Male SD rats (n=8, first #44 row, dose not printed (presumably 3 mg/kg)) turned out to be 3250; in the data set with Male SD rats (n=8, second #44 row, dose not printed (presumably 10 mg/kg)), 2850.

For the compound `O=c1cc(/C=C/c2cccc(F)c2)c2cc(C(c3ccc(Cl)cc3)c3ccsc3)ccc2[nH]1` (centres unmarked) [Compound 16, 6-[(4-Chlorophenyl)(thiophen-3-yl)methyl]-4-[(E)-2-(3-fluorophenyl)ethenyl]quinolin-2(1H)-one], the IC50 is more than 5000 nM on hCB2-HEK293 membranes and 22 nM on hCB1-CHO-K1 membranes.

Regarding `Clc1ccc(C(c2ccc3nccc(/C=C/c4ccccc4)c3c2)c2nccs2)cc1` (centres unmarked) [Compound 511], the IC50 is more than 5000 nM on hCB2-HEK293 membranes and 55.1 nM on hCB1-CHO-K1 membranes.

With `O=c1cc(NC2CCN(S(=O)(=O)C(F)(F)F)CC2)c2cc(C(c3ccc(Cl)cc3)c3nccs3)ccc2[nH]1` (centres unmarked) [Compound #41, 6-((4-chlorophenyl)(thiazol-2-yl)methyl)-4-((1-((trifluoromethyl)sulfonyl)piperidin-4-yl)amino)quinolin-2(1H)-one], the IC50 at hCB2-HEK293 membranes was more than 5000 nM; at hCB1-CHO-K1 membranes it was 4.4 nM.

Take `O=c1cc(Nc2ccc(C(F)(F)F)cc2)c2cc(C(c3ccc(Cl)cc3)c3ccc(Cl)cc3)ccc2[nH]1` [Compound #59, 6-(bis(4-chlorophenyl)methyl)-4-((4-(trifluoromethyl)phenyl)amino)quinolin-2(1H)-one]: the EC50 (commonly the midpoint of the concentration-response curve) in data set [2] is more than 10000 nM. Besides, the “BRAIN Mean Conc. ± Std. Dev” value in data set [3] was “BLOQ ± NA”.
